We go through 20 compounds from patent US20230286958A1, “PLASMA KALLIKREIN INHIBITORS” (Merck Sharp & Dohme LLC, priority 2020, published 2023).

The target in one test is human Factor XIa (Homo sapiens (Human), UniProt P03951). Kind of test: Factor XIa Assay (fluorogenic substrate GPR-AFC). It counts as biochemical. Particulars: Factor XIa (FXIa).
The target of another test is Human plasma kallikrein (Homo sapiens (Human), UniProt P03952). Kind of test: Kallikrein Assay (fluorogenic substrate Acetyl-K-P-R-AFC). The class given is biochemical. Particulars: Plasma Kallikrein (PKal). The essentials:
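Ki is derived from IC50 with the Cheng-Prusoff equation, and IC50 from the inflection point of a four-parameter logistic curve. The rate of AFC release is read with 0.5 nM purified enzyme and […] substrate at room temperature or 37 °C.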

The IC50 is the midpoint of a concentration-inhibition curve.

Chain of Human plasma kallikrein (P03952 391-638): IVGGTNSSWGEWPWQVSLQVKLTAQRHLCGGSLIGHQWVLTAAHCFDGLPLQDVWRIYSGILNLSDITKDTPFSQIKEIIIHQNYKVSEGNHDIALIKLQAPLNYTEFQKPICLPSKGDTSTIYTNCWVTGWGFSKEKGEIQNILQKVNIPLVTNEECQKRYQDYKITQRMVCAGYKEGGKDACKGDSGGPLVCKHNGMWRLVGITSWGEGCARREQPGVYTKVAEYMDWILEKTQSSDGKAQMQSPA
Chain of Human plasma kallikrein (P03952 20-390 partner): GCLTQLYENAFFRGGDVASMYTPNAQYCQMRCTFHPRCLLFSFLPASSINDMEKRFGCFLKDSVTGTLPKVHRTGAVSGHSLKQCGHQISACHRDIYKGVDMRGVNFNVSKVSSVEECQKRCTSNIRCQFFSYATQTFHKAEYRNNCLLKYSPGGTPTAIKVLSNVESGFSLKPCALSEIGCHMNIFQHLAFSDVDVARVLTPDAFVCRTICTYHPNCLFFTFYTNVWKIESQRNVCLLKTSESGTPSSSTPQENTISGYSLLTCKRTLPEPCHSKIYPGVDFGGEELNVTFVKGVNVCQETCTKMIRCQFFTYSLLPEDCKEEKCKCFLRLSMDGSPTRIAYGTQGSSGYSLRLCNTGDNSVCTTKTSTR
Chain of human Factor XIa (P03951 388-625 limits assumed): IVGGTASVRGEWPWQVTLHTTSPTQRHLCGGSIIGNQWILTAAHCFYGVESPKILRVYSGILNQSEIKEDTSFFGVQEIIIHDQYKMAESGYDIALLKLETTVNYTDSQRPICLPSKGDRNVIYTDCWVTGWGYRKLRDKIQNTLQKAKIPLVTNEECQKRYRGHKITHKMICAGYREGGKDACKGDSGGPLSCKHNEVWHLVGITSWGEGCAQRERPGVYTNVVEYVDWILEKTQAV
Chain of human Factor XIa (P03951 19-387 partner limits assumed): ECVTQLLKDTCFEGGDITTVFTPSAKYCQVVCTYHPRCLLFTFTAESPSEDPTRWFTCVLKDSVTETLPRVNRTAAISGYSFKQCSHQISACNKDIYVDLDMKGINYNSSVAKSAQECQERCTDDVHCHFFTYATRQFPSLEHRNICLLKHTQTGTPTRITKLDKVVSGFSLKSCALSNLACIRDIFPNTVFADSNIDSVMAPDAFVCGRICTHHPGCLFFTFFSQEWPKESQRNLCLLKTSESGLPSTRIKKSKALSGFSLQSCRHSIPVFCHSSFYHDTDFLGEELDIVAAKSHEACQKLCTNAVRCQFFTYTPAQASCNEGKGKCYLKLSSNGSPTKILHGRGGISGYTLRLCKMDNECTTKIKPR

As for `Cc1nc([C@H](C)n2cc(NC(=O)c3nc(-c4c(C(F)F)ccc(Cl)c4F)cnc3C)cn2)ncc1N1C[C@H]2C[C@H]2C1=O` [Example 1, 6-(3-Chloro-6-(difluoromethyl)-2-fluorophenyl)-3-methyl-N-(1-((S)-1-(4-methyl-5-((1R,5S)-2-oxo-3-azabicyclo[3.1.0]hexan-3-yl)pyrimidin-2-yl)ethyl)-1H-pyrazol-4-yl)pyrazine-2-carboxamide], the figures for the IC50 against human Factor XIa and against Human plasma kallikrein were above 10000 nM and 0.9 nM, respectively.

Consider `Cc1nc([C@@H](C)n2cc(NC(=O)c3nc(-c4c(C(F)F)ccc(Cl)c4F)cnc3C)cn2)ncc1N1C[C@H]2C[C@H]2C1=O` [Example 2, 6-(3-Chloro-6-(difluoromethyl)-2-fluorophenyl)-3-methyl-N-(1-((R)-1-(4-methyl-5-((1R,5S)-2-oxo-3-azabicyclo[3.1.0]hexan-3-yl)pyrimidin-2-yl)ethyl)-1H-pyrazol-4-yl)pyrazine-2-carboxamide], for which the 50% inhibitory concentration (IC50) on human Factor XIa was above 10000 nM; against Human plasma kallikrein it was 11.9 nM.

As for `Cc1ncc(-c2c(C(F)F)ccc(Cl)c2F)nc1C(=O)Nc1cnn(Cc2cnc(N3C[C@H]4C[C@H]4C3=O)c(Cl)c2)c1` [Example 7, N-(1-((5-Chloro-6-((1R,5S)-2-oxo-3-azabicyclo[3.1.0]hexan-3-yl)pyridin-3-yl)methyl)-1H-pyrazol-4-yl)-6-(3-chloro-6-(difluoromethyl)-2-fluorophenyl)-3-methylpyrazine-2-carboxamide], the IC50 is 527 nM on human Factor XIa and 1.9 nM at Human plasma kallikrein.

Turning to `O=C(Nc1cnn(Cc2cnc(N3C[C@H]4C[C@H]4C3=O)c(Cl)c2)c1)c1cncc(-c2c(C(F)F)ccc(Cl)c2F)n1` [Example 8, N-(1-((5-Chloro-6-((1R,5S)-2-oxo-3-azabicyclo[3.1.0]hexan-3-yl)pyridin-3-yl)methyl)-1H-pyrazol-4-yl)-6-(3-chloro-6-(difluoromethyl)-2-fluorophenyl)pyrazine-2-carboxamide], the IC50 is above 10000 nM on human Factor XIa and 11.9 nM at Human plasma kallikrein.

`O=C(Nc1cnn(Cc2ccc(N3C[C@H]4C[C@H]4C3=O)nc2)c1)c1cncc(-c2c(C(F)F)ccc(Cl)c2F)n1` [Example 9, 6-(3-Chloro-6-(difluoromethyl)-2-fluorophenyl)-N-(1-((6-((1R,5S)-2-oxo-3-azabicyclo[3.1.0]hexan-3-yl)pyridin-3-yl)methyl)-1H-pyrazol-4-yl)pyrazine-2-carboxamide]: the results for the IC50 against human Factor XIa and on Human plasma kallikrein were above 10000 nM and 1 nM, respectively.

On to `Cc1ncc(-c2c(C(F)F)ccc(Cl)c2F)nc1C(=O)Nc1cnn(Cc2ccc(N3C[C@H]4C[C@H]4C3=O)nn2)c1` [Example 21, 6-(3-Chloro-6-(difluoromethyl)-2-fluorophenyl)-3-methyl-N-(1-((6-((1R,5S)-2-oxo-3-azabicyclo[3.1.0]hexan-3-yl)pyridazin-3-yl)methyl)-1H-pyrazol-4-yl)pyrazine-2-carboxamide], for which the IC50 turned out to be 7010 nM against human Factor XIa and 38 nM on Human plasma kallikrein.

In the case of `Cc1nc(N2C[C@H]3C[C@H]3C2=O)ncc1[C@H](C)n1cc(NC(=O)c2cncc(-c3c(C(F)F)ccc(Cl)c3F)n2)cn1` [Example 22, 6-(3-Chloro-6-(difluoromethyl)-2-fluorophenyl)-N-(1-((S)-1-(4-methyl-2-((1R,5S)-2-oxo-3-azabicyclo[3.1.0]hexan-3-yl)pyrimidin-5-yl)ethyl)-1H-pyrazol-4-yl)pyrazine-2-carboxamide], the IC50 was determined as 2730 nM on human Factor XIa and 1.8 nM against Human plasma kallikrein.

Consider `Cc1nc(N2C[C@H]3C[C@H]3C2=O)ncc1[C@@H](C)n1cc(NC(=O)c2cncc(-c3c(C(F)F)ccc(Cl)c3F)n2)cn1` [Example 23, 6-(3-Chloro-6-(difluoromethyl)-2-fluorophenyl)-N-(1-((R)-1-(4-methyl-2-((1R,5S)-2-oxo-3-azabicyclo[3.1.0]hexan-3-yl)pyrimidin-5-yl)ethyl)-1H-pyrazol-4-yl)pyrazine-2-carboxamide], for which the IC50 against human Factor XIa is 7600 nM; at Human plasma kallikrein, 48.7 nM.

`Cc1nc(N2C[C@H]3C[C@H]3C2=O)ncc1Cn1cc(NC(=O)c2cncc(-c3c(C(F)F)ccc(Cl)c3F)n2)cn1` [Example 24, 6-(3-Chloro-6-(difluoromethyl)-2-fluorophenyl)-N-(1-((4-methyl-2-((1R,5S)-2-oxo-3-azabicyclo[3.1.0]hexan-3-yl)pyrimidin-5-yl)methyl)-1H-pyrazol-4-yl)pyrazine-2-carboxamide]: the IC50 at human Factor XIa was found to be 3110 nM; at Human plasma kallikrein, 10.5 nM.

In the case of `O=C(Nc1cnn(Cc2cnc(N3C[C@H]4C[C@H]4C3=O)nc2)c1)c1cncc(-c2c(C(F)F)ccc(Cl)c2F)n1` [Example 25, 6-(3-Chloro-6-(difluoromethyl)-2-fluorophenyl)-N-(1-((2-((1R,5S)-2-oxo-3-azabicyclo-[3.1.0]hexan-3-yl)pyrimidin-5-yl)methyl)-1H-pyrazol-4-yl)pyrazine-2-carboxamide], the IC50 turned out to be 4690 nM against human Factor XIa and 27.7 nM on Human plasma kallikrein.

Take `Cc1nc(N2C[C@H]3C[C@H]3C2=O)ncc1Cn1cc(NC(=O)c2nc(-c3c(C(F)F)ccc(Cl)c3F)cnc2C)cn1` [Example 33, 6-(3-Chloro-6-(difluoromethyl)-2-fluorophenyl)-3-methyl-N-(1-((4-methyl-2-((1R,5S)-2-oxo-3-azabicyclo[3.1.0]hexan-3-yl)pyrimidin-5-yl)methyl)-1H-pyrazol-4-yl)pyrazine-2-carboxamide]: the IC50 against human Factor XIa turned out to be 875 nM; at Human plasma kallikrein, 2.5 nM.

Consider `Cc1nc(N2C[C@@H]3C[C@@H]3C2=O)ncc1Cn1cc(NC(=O)c2nc(-c3c(C(F)F)ccc(Cl)c3F)cnc2C)cn1` [Example 34, 6-(3-Chloro-6-(difluoromethyl)-2-fluorophenyl)-3-methyl-N-(1-((4-methyl-2-((1S,5R)-2-oxo-3-azabicyclo[3.1.0]hexan-3-yl)pyrimidin-5-yl)methyl)-1H-pyrazol-4-yl)pyrazine-2-carboxamide], for which the 50% inhibitory concentration (IC50) against human Factor XIa amounted to 2890 nM; against Human plasma kallikrein, 19.3 nM.

In the case of `C=Cc1ncc(-c2c(C(F)F)ccc(Cl)c2F)nc1C(=O)Nc1cnn(Cc2cnc(N3C[C@H]4C[C@H]4C3=O)nc2C)c1` [Example 35, 6-(3-Chloro-6-(difluoromethyl)-2-fluorophenyl)-N-(1-((4-methyl-2-((1R,5S)-2-oxo-3-azabicyclo[3.1.0]hexan-3-yl)pyrimidin-5-yl)methyl)-1H-pyrazol-4-yl)-3-vinylpyrazine-2-carboxamide], the values for the IC50 on human Factor XIa and against Human plasma kallikrein were 4940 nM and 6.8 nM, respectively.

`Cc1nc(N2C[C@H]3C[C@H]3C2=O)ncc1Cn1cc(NC(=O)c2nc(-c3c(OC(F)F)ccc(Cl)c3F)cnc2C)cn1` [Example 36, 6-(3-Chloro-6-(difluoromethoxy)-2-fluorophenyl)-3-methyl-N-(1-((4-methyl-2-((1R,5S)-2-oxo-3-azabicyclo[3.1.0]hexan-3-yl)pyrimidin-5-yl)methyl)-1H-pyrazol-4-yl)pyrazine-2-carboxamide]: the IC50 stood at 609 nM at human Factor XIa and 3 nM on Human plasma kallikrein.

With `Cc1cc([C@H](C)n2cc(NC(=O)c3cncc(-c4c(C(F)F)ccc(Cl)c4F)n3)cn2)nnc1N1C[C@H]2C[C@H]2C1=O` [Example 37, 6-(3-Chloro-6-(difluoromethyl)-2-fluorophenyl)-N-(1-((S)-1-(5-methyl-6-((1R,5S)-2-oxo-3-azabicyclo[3.1.0]hexan-3-yl)pyridazin-3-yl)ethyl)-1H-pyrazol-4-yl)pyrazine-2-carboxamide], the IC50 was 1270 nM on human Factor XIa and 1.2 nM against Human plasma kallikrein.

With `Cc1cc([C@@H](C)n2cc(NC(=O)c3cncc(-c4c(C(F)F)ccc(Cl)c4F)n3)cn2)nnc1N1C[C@H]2C[C@H]2C1=O` [Example 38, 6-(3-Chloro-6-(difluoromethyl)-2-fluorophenyl)-N-(1-((R)-1-(5-methyl-6-((1R,5S)-2-oxo-3-azabicyclo[3.1.0]hexan-3-yl)pyridazin-3-yl)ethyl)-1H-pyrazol-4-yl)pyrazine-2-carboxamide], the IC50 at human Factor XIa was 742 nM; on Human plasma kallikrein, 6.2 nM.

For `Cc1cc([C@H](C)n2cc(NC(=O)c3nc(-c4c(OC(F)F)ccc(Cl)c4F)cnc3C)cn2)nnc1N1C[C@H]2C[C@H]2C1=O` [Example 39, 6-(3-Chloro-6-(difluoromethoxy)-2-fluorophenyl)-3-methyl-N-(1-((S)-1-(5-methyl-6-((1R,5S)-2-oxo-3-azabigyclo[3.1.0]hexan-3-yl)pyridazin-3-yl)ethyl)-1H-pyrazol-4-yl)pyrazine-2-carboxamide], the figures for the IC50 against human Factor XIa and at Human plasma kallikrein were 328 nM and 0.4 nM, respectively.

In the case of `Cc1cc([C@@H](C)n2cc(NC(=O)c3nc(-c4c(OC(F)F)ccc(Cl)c4F)cnc3C)cn2)nnc1N1C[C@H]2C[C@H]2C1=O` [Example 40, 6-(3-Chloro-6-(difluoromethoxy)-2-fluorophenyl)-3-methyl-N-(1-((R)-1-(5-methyl-6-((1R,5S)-2-oxo-3-azabicyclo[3.1.0]hexan-3-yl)pyridazin-3-yl)ethyl)-1H-pyrazol-4-yl)pyrazine-2-carboxamide], the IC50 came to 255 nM against human Factor XIa and 1.8 nM against Human plasma kallikrein.

In the case of `Cc1cc(Cn2cc(NC(=O)c3nc(-c4c(C(F)F)ccc(Cl)c4F)cnc3C)cn2)cnc1N1C[C@H]2C[C@H]2C1=O` [Example 41, 6-(3-Chloro-6-(difluoromethyl)-2-fluorophenyl)-3-methyl-N-(1-((5-methyl-6-((1R,5S)-2-oxo-3-azabicyclo[3.1.0]hexan-3-yl)pyridin-3-yl)methyl)-1H-pyrazol-4-yl)pyrazine-2-carboxamide], the half-maximal inhibitory concentration (IC50) at human Factor XIa is 53 nM; on Human plasma kallikrein, 0.2 nM.

Regarding `Cc1c(C(C)n2cc(NC(=O)c3cncc(-c4c(C(F)F)ccc(Cl)c4F)n3)cn2)cnc(N2C[C@H]3C[C@H]3C2=O)c1F` (stereo partly drawn) [Example 45, 6-(3-Chloro-6-(difluoromethyl)-2-fluorophenyl)-N (1-(1-(5-fluoro-4-methyl-6-((1R,5S)-2-oxo-3-azabicyclo[3.1.0]hexan-3-yl)pyridin-3-yl)ethyl)-1H-pyrazol-4-yl)pyrazine-2-carboxamide], the IC50 worked out at 4670 nM at human Factor XIa and 6.1 nM at Human plasma kallikrein.
